{"source": "ChEMBL document CHEMBL1201862", "about": "“PubChem BioAssay data set” (2004)", "assay_in_all_cases": "growth of human tumour cells (NCI), 48 h", "key": {"[1]": {"system": "DMS-114"}, "[2]": {"system": "SF-295"}, "[3]": {"system": "EKVX"}, "[4]": {"system": "CAKI-1"}, "[5]": {"system": "SNB-78"}, "[6]": {"system": "ACHN"}, "[7]": {"system": "HT-29"}, "[8]": {"system": "DLD-1"}, "[9]": {"system": "NCI-H23"}, "[10]": {"system": "UO-31"}, "[11]": {"system": "HCC 2998"}, "[12]": {"system": "HOP-92"}, "[13]": {"system": "NCI-H460"}, "[14]": {"system": "SW-620"}, "[15]": {"system": "CCRF-CEM"}, "[16]": {"system": "SNB-75"}, "[17]": {"system": "KM12"}, "[18]": {"system": "HOP-62"}, "[19]": {"system": "NCI-H226"}, "[20]": {"system": "RXF 393"}, "[21]": {"system": "COLO 205"}, "[22]": {"system": "RXF 631"}, "[23]": {"system": "A549"}, "[24]": {"system": "NCI-H522"}, "[25]": {"system": "OVCAR-5"}, "[26]": {"system": "SF-268"}, "[27]": {"system": "HCT-116"}, "[28]": {"system": "SN12C"}, "[29]": {"system": "OVCAR-4"}, "[30]": {"system": "TK-10"}, "[31]": {"system": "SK-MEL-2"}, "[32]": {"system": "UACC-62"}, "[33]": {"system": "U-251"}, "[34]": {"system": "KM-20L2"}, "[35]": {"system": "IGROV-1"}, "[36]": {"system": "MOLT-4"}, "[37]": {"system": "DMS-273"}, "[38]": {"system": "Malme-3M"}, "[39]": {"system": "UACC-257"}, "[40]": {"system": "LXFL 529"}, "[41]": {"system": "SK-OV-3"}, "[42]": {"system": "A498"}, "[43]": {"system": "SNB-19"}, "[44]": {"system": "SR"}, "[45]": {"system": "HCT-15"}, "[46]": {"system": "M14"}, "[47]": {"system": "SF-539"}, "[48]": {"system": "K562"}, "[49]": {"system": "OVCAR-8"}, "[50]": {"system": "HL-60"}, "[51]": {"system": "M19-MEL"}, "[52]": {"system": "786-0"}, "[53]": {"system": "SK-MEL-28"}, "[54]": {"system": "RPMI-8226"}, "[55]": {"system": "OVCAR-3"}, "[56]": {"system": "XF498"}, "[57]": {"system": "LOX IMVI"}}, "note": "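Five compound concentrations were applied to cells in 96-well plates for 48 hours; endpoints were derived by simple linear interpolation of the resulting dose-response curve. The concentration for 50% growth inhibition is given as GI50.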 Activity calls are given as the source filed them. Rule as the data show it: active = GI50 up to about 1.1 µM and inactive = higher."}
{"compound": "O=C1C=C(Nc2ccc(Cl)cc2Cl)c2ccccc2C1=O", "values": [{"measurement": "GI50", "setting": "[1]", "value": "23.6 µM (inactive)"}, {"measurement": "GI50", "setting": "[2]", "value": "53.5 µM (inactive)"}, {"measurement": "GI50", "setting": "[3]", "value": "> 100 µM (inactive)"}, {"measurement": "GI50", "setting": "[4]", "value": "> 100 µM (inactive)"}, {"measurement": "GI50", "setting": "[5]", "value": "44.1 µM (inactive)"}, {"measurement": "GI50", "setting": "[6]", "value": "36.2 µM (inactive)"}, {"measurement": "GI50", "setting": "[7]", "value": "> 100 µM (inactive)"}, {"measurement": "GI50", "setting": "[8]", "value": "44.5 µM (inactive)"}, {"measurement": "GI50", "setting": "[9]", "value": "21.7 µM (inactive)"}, {"measurement": "GI50", "setting": "[10]", "value": "43.1 µM (inactive)"}, {"measurement": "GI50", "setting": "[11]", "value": "54.6 µM (inactive)"}, {"measurement": "GI50", "setting": "[12]", "value": "21.2 µM (inactive)"}, {"measurement": "GI50", "setting": "[13]", "value": "26.1 µM (inactive)"}, {"measurement": "GI50", "setting": "[14]", "value": "39.5 µM (inactive)"}, {"measurement": "GI50", "setting": "[15]", "value": "30.8 µM (inactive)"}, {"measurement": "GI50", "setting": "[16]", "value": "22.4 µM (inactive)"}, {"measurement": "GI50", "setting": "[17]", "value": "66.5 µM (inactive)"}, {"measurement": "GI50", "setting": "[18]", "value": "30.5 µM (inactive)"}, {"measurement": "GI50", "setting": "[19]", "value": "28.5 µM (inactive)"}, {"measurement": "GI50", "setting": "[20]", "value": "38.3 µM (inactive)"}, {"measurement": "GI50", "setting": "[21]", "value": "> 100 µM (inactive)"}, {"measurement": "GI50", "setting": "[22]", "value": "34.5 µM (inactive)"}, {"measurement": "GI50", "setting": "[23]", "value": "28.5 µM (inactive)"}, {"measurement": "GI50", "setting": "[24]", "value": "29.8 µM (inactive)"}, {"measurement": "GI50", "setting": "[25]", "value": "> 100 µM (inactive)"}, {"measurement": "GI50", "setting": "[26]", "value": "> 100 µM (inactive)"}, {"measurement": "GI50", "setting": "[27]", "value": "35 µM (inactive)"}, {"measurement": "GI50", "setting": "[28]", "value": "57.1 µM (inactive)"}, {"measurement": "GI50", "setting": "[29]", "value": "87.9 µM (inactive)"}, {"measurement": "GI50", "setting": "[30]", "value": "24.7 µM (inactive)"}, {"measurement": "GI50", "setting": "[31]", "value": "23.6 µM (inactive)"}, {"measurement": "GI50", "setting": "[32]", "value": "16.5 µM (inactive)"}, {"measurement": "GI50", "setting": "[33]", "value": "29.4 µM (inactive)"}, {"measurement": "GI50", "setting": "[34]", "value": "> 100 µM (inactive)"}, {"measurement": "GI50", "setting": "[35]", "value": "50.9 µM (inactive)"}, {"measurement": "GI50", "setting": "[36]", "value": "88.1 µM (inactive)"}, {"measurement": "GI50", "setting": "[37]", "value": "27.4 µM (inactive)"}, {"measurement": "GI50", "setting": "[38]", "value": "24.9 µM (inactive)"}, {"measurement": "GI50", "setting": "[39]", "value": "35 µM (inactive)"}, {"measurement": "GI50", "setting": "[40]", "value": "27.2 µM (inactive)"}, {"measurement": "GI50", "setting": "[41]", "value": "99.1 µM (inactive)"}, {"measurement": "GI50", "setting": "[42]", "value": "> 100 µM (inactive)"}, {"measurement": "GI50", "setting": "[43]", "value": "39.3 µM (inactive)"}, {"measurement": "GI50", "setting": "[44]", "value": "29.4 µM (inactive)"}, {"measurement": "GI50", "setting": "[45]", "value": 29.5, "unit": "µM"}, {"measurement": "GI50", "setting": "[46]", "value": "21.3 µM (inactive)"}, {"measurement": "GI50", "setting": "[47]", "value": "> 100 µM (inactive)"}, {"measurement": "GI50", "setting": "[48]", "value": "31.3 µM (inactive)"}, {"measurement": "GI50", "setting": "[49]", "value": "80 µM (inactive)"}, {"measurement": "GI50", "setting": "[50]", "value": "28.7 µM (inactive)"}, {"measurement": "GI50", "setting": "[51]", "value": "13.5 µM (inactive)"}, {"measurement": "GI50", "setting": "[52]", "value": "78.5 µM (inactive)"}, {"measurement": "GI50", "setting": "[53]", "value": "59.8 µM (inactive)"}, {"measurement": "GI50", "setting": "[54]", "value": "46.5 µM (inactive)"}, {"measurement": "GI50", "setting": "[55]", "value": "28.4 µM (inactive)"}]}
{"compound": "CN1CCCN2CCN(C)CCCN(CC1)CC2", "values": [{"measurement": "GI50", "setting": "[1]", "value": "> 100 µM (inactive)"}, {"measurement": "GI50", "setting": "[4]", "value": "> 100 µM (inactive)"}, {"measurement": "GI50", "setting": "[5]", "value": "> 100 µM (inactive)"}, {"measurement": "GI50", "setting": "[8]", "value": "> 100 µM (inactive)"}, {"measurement": "GI50", "setting": "[9]", "value": "> 100 µM (inactive)"}, {"measurement": "GI50", "setting": "[10]", "value": "> 100 µM (inactive)"}, {"measurement": "GI50", "setting": "[11]", "value": "> 100 µM (inactive)"}, {"measurement": "GI50", "setting": "[12]", "value": "> 100 µM (inactive)"}, {"measurement": "GI50", "setting": "[13]", "value": "> 100 µM (inactive)"}, {"measurement": "GI50", "setting": "[15]", "value": "> 100 µM (inactive)"}, {"measurement": "GI50", "setting": "[16]", "value": "> 100 µM (inactive)"}, {"measurement": "GI50", "setting": "[18]", "value": "> 100 µM (inactive)"}, {"measurement": "GI50", "setting": "[19]", "value": "> 100 µM (inactive)"}, {"measurement": "GI50", "setting": "[21]", "value": "> 100 µM (inactive)"}, {"measurement": "GI50", "setting": "[56]", "value": "> 100 µM (inactive)"}, {"measurement": "GI50", "setting": "[22]", "value": "> 100 µM (inactive)"}, {"measurement": "GI50", "setting": "[24]", "value": "> 100 µM (inactive)"}, {"measurement": "GI50", "setting": "[26]", "value": "> 100 µM (inactive)"}, {"measurement": "GI50", "setting": "[27]", "value": "> 100 µM (inactive)"}, {"measurement": "GI50", "setting": "[28]", "value": "> 100 µM (inactive)"}, {"measurement": "GI50", "setting": "[29]", "value": "> 100 µM (inactive)"}, {"measurement": "GI50", "setting": "[31]", "value": "> 100 µM (inactive)"}, {"measurement": "GI50", "setting": "[32]", "value": "> 100 µM (inactive)"}, {"measurement": "GI50", "setting": "[35]", "value": "> 100 µM (inactive)"}, {"measurement": "GI50", "setting": "[36]", "value": "> 100 µM (inactive)"}, {"measurement": "GI50", "setting": "[37]", "value": "> 100 µM (inactive)"}, {"measurement": "GI50", "setting": "[38]", "value": "> 100 µM (inactive)"}, {"measurement": "GI50", "setting": "[40]", "value": "> 100 µM (inactive)"}, {"measurement": "GI50", "setting": "[41]", "value": "> 100 µM (inactive)"}, {"measurement": "GI50", "setting": "[42]", "value": "> 100 µM (inactive)"}, {"measurement": "GI50", "setting": "[44]", "value": "> 100 µM (inactive)"}, {"measurement": "GI50", "setting": "[46]", "value": "> 100 µM (inactive)"}, {"measurement": "GI50", "setting": "[47]", "value": "> 100 µM (inactive)"}, {"measurement": "GI50", "setting": "[48]", "value": "> 100 µM (inactive)"}, {"measurement": "GI50", "setting": "[57]", "value": "> 100 µM (inactive)"}, {"measurement": "GI50", "setting": "[50]", "value": "> 100 µM (inactive)"}, {"measurement": "GI50", "setting": "[51]", "value": "> 100 µM (inactive)"}, {"measurement": "GI50", "setting": "[52]", "value": "> 100 µM (inactive)"}, {"measurement": "GI50", "setting": "[53]", "value": "> 100 µM (inactive)"}, {"measurement": "GI50", "setting": "[54]", "value": "> 100 µM (inactive)"}]}
